The nature of this series: gradient 5% acetonitrile 3 min, to 50% in 2 min, to 85% in 15 min, held 3 min, 100 µL/min. Conditions: column: Zorbax Extend-C18 2.1 x 50 mm; eluents: water / acetonitrile, 0.1% formic acid. Summed up:
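Values are retention times taken from adduct peaks that software picked and an analyst inspected. The pure standards were run as mixtures of ~100 molecules on HPLC linked to a quadrupole time-of-flight mass spectrometer, in positive and negative ionization mode. A Zorbax Extend-C18 column (2.1 × 50 mm, 1.8 μm) was used at 100 μL/min with water and acetonitrile, each including 0.1% formic acid.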
`CCCC(=O)N1CCCn2nc(-c3ccncc3)cc2C1` displayed an RP-LC retention time of 577 s.
As for `CCOC(=O)c1nc(Nc2ccc(OC)c(Cl)c2)c2ccccc2n1`, the RP-LC retention time is 886 s.
On to `CCC(C)C1Nc2ccc(C(=O)NCCCN3CCOCC3)cc2NC1=O` (stereo not given), for which the RP-LC retention time came to 584 s.
On to `CCOc1ccc(NC(=O)CSc2ncc(S(=O)(=O)c3ccccc3)c(=O)[nH]2)cc1`, for which the RP-LC retention time was determined as 737 s.
Turning to `COc1ccc(N2CCN(c3cc(SCC(=O)Nc4cc(C)ccc4C)ncn3)CC2)cc1`, the RP-LC retention time amounted to 1020 s.
`CCOC(=O)C1CCN(c2nc(=O)n(CC(=O)Nc3cccc(C)c3)c3ccccc23)CC1` came in with an RP-LC retention time of 833 s.
Turning to `CCOc1ccc(-c2cn3ccn(-c4ccc(Br)cc4)c(=O)c3n2)cc1`, the RP-LC retention time turned out to be 931 s.
With `Cc1ccc2c(C(=O)NCc3ccccc3Cl)cc(NC(=O)C(C)C)cc2n1`, the RP-LC retention time turned out to be 674 s.
Under `O=C1CC(c2ccccc2)N(C2CCC2)CCCCCN1` (stereo not given) stands 595 s.
As to `O=C(Cc1cccs1)N1CCC(c2nc(-c3ccccc3)no2)C1` (stereo not given), the RP-LC retention time amounted to 883 s.
In the case of `Cc1c(OCC(N)=O)ccc2c1O/C(=C\c1ccc3c(c1)OCO3)C2=O` it was 714 s.
Under `CCCN(C(=O)c1ccccc1OC)c1nc(-c2ccccc2)cs1` stands 1310 s; under `Cc1sc2ncnc(N3CCCCC3)c2c1C(=O)Nc1cc(F)c(F)c(F)c1`, 1230 s.
On to `CCNC(=O)c1nc(-c2ccc(C)cc2)n2c1CCCCC2`, for which the RP-LC retention time turned out to be 738 s.
In turn, `CCN(Cc1cn(C)nc1C)C(=O)C1CN(C(=O)c2ccccc2)CC12CCCCC2` (stereo not given) gave an RP-LC retention time of 793 s.
As to `Cn1c(C(=O)N2CCCc3ccccc32)cc2c(=O)oc3ccccc3c21`, the RP-LC retention time is 988 s.
Consider `CC(C)CN1CCCCc2cc(C(=O)NC3CCS(=O)(=O)C3)sc21` (stereo not given), for which the RP-LC retention time stood at 941 s.
Take `O=C1[C@H]2CN(Cc3cc(F)cc(F)c3)C[C@H]2C(=O)N1CCc1ccccc1`: the RP-LC retention time was 957 s.
In the case of `CCc1noc(-c2ccnc(-n3cnc(C(=O)NCC(C)C)c3)c2)n1` it was 983 s.
The compound `Cc1sc(NC(=O)CC(C)C)nc1-c1ccc2c(c1)NC(=O)C(C)O2` (stereo not given) gave an RP-LC retention time of 865 s.
`Fc1cccc(Cn2cc(-c3noc(-c4cccc(F)c4)n3)nn2)c1` showed an RP-LC retention time of 1040 s.
Under `Cc1nn(-c2ccc(C(=O)N3CCN(C(=O)c4ccco4)CC3)cc2)c2c1C(=O)CC(C)(C)C2` stands 712 s.
`CCN1C(=O)c2cccnc2Sc2cc(NC(=O)c3ccccc3C(F)(F)F)ccc21` gave an RP-LC retention time of 840 s.
`N#Cc1ccc(NS(=O)(=O)c2cccc(-c3nc(-c4ccccc4)no3)c2)cc1` had an RP-LC retention time of 1090 s.
The compound `CCOc1cccc(Cn2c(=O)c3sccc3n(Cc3nc(-c4ccccc4C)no3)c2=O)c1` registered an RP-LC retention time of 1190 s.
`Cc1c(Cl)cccc1Nc1c(-c2ccc(C(=O)O)cc2)nc2cnccn12` showed an RP-LC retention time of 796 s.
In the case of `CCn1cnc(S(=O)(=O)N2CCCC(C(=O)NCc3ccc(C)cc3)C2)c1` (stereo not given) it was 803 s; in that of `CCn1c(=O)n(CC(=O)NCCN2CCCCC2C)c(=O)c2cnc(-c3ccc(Cl)cc3)nc21` (stereo not given), 751 s.
Compound `Cc1ccnc(C(=O)Nc2ccc(Nc3ccc(-n4nc(C)c(C)c4C)nn3)cc2)n1` displayed an RP-LC retention time of 692 s.
`O=C(NC1CC1)C1CCCN(C(=O)c2ccoc2)C1` (stereo not given) displayed an RP-LC retention time of 584 s.
Take `Cc1cc(C(=O)NCc2ccc(C)o2)c2cc(Br)ccc2n1`: the RP-LC retention time was 801 s.
Compound `CCC1CN(C(=O)N2CCC(C(=O)NCCCN3CCOCC3)CC2)c2cc(C)ccc2O1` (stereo not given) displayed an RP-LC retention time of 648 s.
With `COc1nn(C)cc1C(=O)Nc1nc(-c2ccc3c(c2)CCCC3)cs1`, the RP-LC retention time worked out at 1090 s.
Under `CCCn1c(-c2cccc(C(=O)NCc3ccncc3)c2)nc2cccnc21` stands 592 s; under `COc1ccccc1C(=O)N1CCCC1COc1ccc(C(=O)N2CCCC2)cc1` (stereo not given), 784 s.
Under `Cc1ccc(C(=O)CC2(O)C(=O)Nc3ccccc32)cc1` (stereo not given) stands 704 s; under `CCS(=O)(=O)c1nc2ccc(NS(=O)(=O)c3ccc4c(c3)CCCC4)cc2s1`, 1010 s; under `COc1ccc(CNC(=O)N2c3ccccc3CC2c2nc(C3CC3)no2)cc1` (stereo not given), 1180 s.
As to `COCCOC1CCC12CCN(C(=O)c1cc(C)oc1C)CC2` (stereo not given), the RP-LC retention time was found to be 811 s.
Compound `CCc1ccc(CNC(=O)Cc2c(C(=O)O)c(C)cn2CC)cc1` came in with an RP-LC retention time of 842 s.
As to `O=C1CC(C(=O)N2CCc3ccccc32)CN1CCc1c[nH]c2ccc(Cl)cc12` (stereo not given), the RP-LC retention time worked out at 880 s.
Under `CC(=O)N1CCN(Cc2nc(-c3ccc(N4CCSCC4)nc3)no2)CC1` stands 669 s; under `COCCN1C(=O)c2ccccc2C(C(=O)Nc2nc(C)cs2)C12CCCCC2` (stereo not given), 810 s.
For the compound `CC(=O)SCc1nc(SCC(=O)Nc2ccccc2C)n[nH]1`, the RP-LC retention time was 623 s.
`Cc1nn(-c2cc(N3CCCC3)ncn2)c(C)c1CCC(=O)N1CCN(c2ccccn2)CC1`: the RP-LC retention time turned out to be 587 s.
In turn, `CCc1nn2c(CNC(=O)c3ccc(OC)c(F)c3)c(-c3ccccc3)nc2s1` returned an RP-LC retention time of 912 s.
Take `CCN1CCN(c2ncc3c(n2)CCN(Cc2ccc(Cl)c(F)c2)C3)CC1`: the RP-LC retention time turned out to be 575 s.
In the case of `CCCCN(CCCNC(=O)C1CCN(S(=O)(=O)CCC)CC1)Cc1ccccc1` it was 672 s; in that of `Cc1nc2cc3c(cc2n1CC(=O)NC(C)c1ccc2c(c1)OCCCO2)OCCO3` (stereo not given), 634 s; in that of `CCn1c(C2CCN(S(=O)(=O)c3cccc4nsnc34)C2)nc2cccnc21` (stereo not given), 705 s.
In the case of `Cc1nn(C(C)C)c(C)c1S(=O)(=O)N1CCN(C(=O)c2cncc(Br)c2)CC1` it was 762 s; in that of `CCOc1ccc(CNC(=O)c2c(C)sc3ccn(CC)c(=O)c23)cc1`, 836 s; in that of `CCCNC(=O)C1CCN(c2ccc(SCC(=O)Nc3cccc(CC)c3)nn2)CC1`, 674 s.
In the case of `CC(C)c1nnc(-c2ccc(S(=O)(=O)N3CCCC3)o2)o1`, the RP-LC retention time turned out to be 815 s.
Under `CCN1CCCn2cc(S(=O)(=O)N3CCCCCC3)cc2C1=O` stands 747 s; under `CC(Cc1cccs1)NS(=O)(=O)c1ccc2c(c1)OCCO2` (stereo not given), 840 s.
Compound `COCCNC(=O)CSc1cc(N2CCN(c3ccccc3OC)CC2)ncn1` yielded an RP-LC retention time of 698 s.
The compound `CC1CCN(c2cc(-n3ccnc3)ncn2)CC1` gave an RP-LC retention time of 651 s.
In the case of `c1cc(-c2noc(-c3cccc4[nH]ccc34)n2)cc(-c2ccn[nH]2)c1` it was 900 s; in that of `COc1ccc(-c2cc3c(=O)n(Cc4nc(-c5ccccc5Br)no4)ncn3n2)cc1`, 1090 s.
Turning to `O=C(Nc1nc2ccccc2s1)C1CCCN(c2ncnc3c2nc2n3CCCCC2)C1` (stereo not given), the RP-LC retention time is 909 s.
Under `CCOC(=O)c1nc(Nc2ccccc2OCC)c2c(CC)noc2n1` stands 1100 s; under `Cc1ccc(CNC(=O)C2CCCN(S(=O)(=O)c3c[nH]c(C(=O)N4CCCCCC4)c3)C2)cc1` (stereo not given), 883 s; under `COc1cccc(C(=O)Nc2nc3c(s2)CN(Cc2ccccc2)CC3)c1OC`, 585 s.
`COc1ccccc1CCc1nc(C2CC(=O)N(c3ccc(F)c(Cl)c3)C2)no1` (stereo not given): the RP-LC retention time came out at 1110 s.
`Cc1[nH]c(C(=O)N2CCCC(C(=O)NC(C)c3ccccc3)C2)c(C)c1C(=O)OC(C)C` (stereo not given) displayed an RP-LC retention time of 896 s.
In the case of `COc1nc2ccccc2nc1N1CCCC(C(=O)Nc2cc(F)cc(F)c2)C1` (stereo not given) it was 1170 s; in that of `O=C(Nc1ccc(F)cc1F)N1CCN(Cc2nc3cc(Cl)ccc3o2)CC1`, 763 s.
With `O=C(Cn1cccn1)N1CCN(c2ncccn2)CC1`, the RP-LC retention time is 567 s.
`O=C(Nc1ccc2c(c1)OCCO2)c1cc2nc(N3CCCCC3)sc2s1` had an RP-LC retention time of 1010 s.
With `CC(C)CCN1CCc2[nH]nc(C(=O)N(C)C)c2C1`, the RP-LC retention time turned out to be 575 s.
Under `Cc1cc(C)n(-c2ccc(=O)n(CC(=O)N3CCN(c4ncccn4)CC3)n2)n1` stands 623 s; under `O=C(NCC1(N2CCOCC2)CCOC1)Nc1cc(Cl)cc(Cl)c1` (stereo not given), 657 s; under `CC(C)C(=O)N1CCc2c([nH]c3ccccc23)C12C(=O)Nc1ccc(Br)cc12` (stereo not given), 925 s.
In the case of `CCOC(=O)C1CCN(C(=O)Cn2c(=O)c3nnc(C)n3c3ncccc32)CC1` it was 780 s; in that of `Cc1ccc(-n2ncc3c(=O)n(Cc4nc(-c5ccc(OC(C)C)cc5)no4)cnc32)cc1Cl`, 726 s.
For `O=C(CCc1nnc2c3cc(-c4ccccc4)nn3ccn12)N1CCN(C2CCCCC2)CC1`, the RP-LC retention time came to 628 s.
Turning to `CCC1CN(C(=O)N2CCC(C(=O)NCCCN3CCCC3=O)CC2)c2ccccc2O1` (stereo not given), the RP-LC retention time was determined as 709 s.
In the case of `CCc1nc(NCc2ccncc2)ncc1C(=O)O` it was 555 s.
Compound `CCOc1ccc(NC(=O)Cn2nc3n(c2=O)CCCC3)cc1` had an RP-LC retention time of 655 s.

For the origin of these results see the METLIN SMRT retention time set (Domingo-Almenara et al. 2019).
